Reference: publication PMC8580996, “2-Oxoglutarate derivatives can selectively enhance or inhibit the activity of human oxygenases” (Nature Communications, 2021)
Values joined by “and” are separate entries in the source; they are usually repeats but may differ in a detail not shown here. Equal values may be shown once.

Key:
Assay type in all cases: biochemical
FIH [1] = target: T1, FIH (Homo sapiens, UniProt Q9NWT6); test: SPE-MS FIH turnover (cosubstrate) assay in the absence of 2OG; conditions: 330 μM 2OG or 2OG derivative, no 2OG, t = 15 min
T1 sequence (Q9NWT6 whole entry): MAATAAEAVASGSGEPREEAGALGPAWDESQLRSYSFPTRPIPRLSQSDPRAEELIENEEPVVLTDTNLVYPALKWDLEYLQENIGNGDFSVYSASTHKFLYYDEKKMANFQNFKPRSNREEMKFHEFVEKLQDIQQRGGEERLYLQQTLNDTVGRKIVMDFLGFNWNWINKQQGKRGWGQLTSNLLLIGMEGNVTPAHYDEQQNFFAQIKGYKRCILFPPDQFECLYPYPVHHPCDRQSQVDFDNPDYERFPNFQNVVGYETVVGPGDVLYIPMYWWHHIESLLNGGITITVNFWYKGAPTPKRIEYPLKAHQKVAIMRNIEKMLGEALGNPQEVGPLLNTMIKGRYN
How it was run: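 With 2OG omitted, 2OG analogues were tested as cosubstrates for recombinant FIH, and +16 Da hydroxylated product versus remaining substrate was monitored by C4 solid-phase extraction coupled to MS. Percent conversion came from product integral over summed substrate and product integrals.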

FIH [2] = target: T1, FIH; test: Competition assay in a single reaction vessel, FIH-catalyzed hydroxylation (SPE-MS)
FIH [3] = target: T1, FIH; test: 1H NMR assay of FIH-catalyzed oxidative decarboxylation of cosubstrate, with SPE-MS of final mixture; conditions: 5 μM FIH, 150 μM CA1-20, 150 μM cosubstrate
Protocol: Supplementary Figure 2. […] FIH- […]
catalyzed oxidative decarboxylation of 2OG was monitored using a Bruker AVIII 700 NMR machine equipped with a 5 mm 1H(13C/15N) inverse cryoprobe; spectra were analyzed using the Bruker TopSpin 3.6.1 software.
50 μM ammonium iron(II) sulfate hexahydrate (FAS, (NH4)2Fe(SO4)2·6H2O) in 50 mM aqueous Tris-d11 containing 10% v/v D2O (pH 7.5, 25° C). The ratio of the CA 1-20 peptide and the hydroxylated CA 1-20(Ox) peptide, which is the product of the F IH-catalyzed hydroxylation reaction, was determined using SPE-MS after NMR […]
(a) Close-up (3.0-2.2 ppm) of the 1H NMR spectrum of commercial 2OG in 50 mM aqueous Tris-d11 containing 10%v/v D2O (pH 7.5, 25° C); (b) Close-up (3.0-2.2 ppm) of the 1H NMR spectrum of commercial succinate in 50 […]
FIH-catalyzed oxidative decarboxylation of 3-methyl-2OG (1) was monitored using a Bruker AVIII 700 NMR machine equipped with a 5 mm 1H(13C/15N) inverse cryoprobe; spectra were analyzed using the […]
Bruker TopSpin 3.6.1 software. […]
in 50 mM aqueous Tris -d11 containing 10% v/v D2O (pH 7.5, 25° C). The ratio of the CA 1-20 peptide and the hydroxylated CA 1-20(Ox) peptide, which is the product of the FIH -catalyzed hydroxylation reaction, was […]
(a) Close -up (3.4 -0.9 ppm) of the 1H NMR spectrum of synthetic 1 in 50 mM aqueous Tris-d11 containing 10% v/v D2O (pH 7.5, 2 5° C); ( b) Close -up (3.4 -0.9 ppm) of the 1H NMR spectrum of commercial 2 -methylsuccinate ( 36) […]
FIH-catalyzed oxidative decarboxylation of 4-methyl-2OG (12) was monitored using a Bruker AVIII 700 NMR machine equipped with a 5 mm 1H(13C/15N) inverse cryoprobe; spectra were analyzed using the Bruker TopSpin 3.6.1 software.
(NH4)2Fe(SO4)2·6H2O) in 50 mM aqueous Tris-d11 containing 10% v/v D2O (pH 7.5, 25° C). The ratio of the CA 1-20 peptide and the hydroxylated CA 1-20(Ox) peptide, which is the product of the FI H-catalyzed hydroxylation […]
(a) Close -up (3.3 -0.9 ppm) of the 1H NMR spectrum of synthetic 12 in 50 mM aqueous Tris-d11 containing 10% v/v D2O (pH 7.5, 25° C); ( b) Close -up (3.4 -0.9 ppm) of the 1H NMR spectrum of commercial 2 -methylsuccinate ( 36)

Compound: CC(CC(=O)C(=O)O)C(=O)O (stereo not shown) [compound 12, 4-methyl-2OG]
- FIH activity, %-substrate conversion (FIH [1]; CA1–20 substrate): ~80%
- FIH activity, %-substrate conversion (FIH [1]; HIF-1α788–822 substrate): ~45%
- FIH-catalyzed CA1–20 conversion (FIH [2]; Fig 2e, 20 μM 12 and 100 μM 2OG): ~ 90%
- substrate hydroxylation (% conversion) (FIH [2]; Fig 2e, 20 μM 12 and 100 μM 2OG, FIH, 0 min): 15.3987 and 14.8576 and 13.209
- substrate hydroxylation (% conversion) (FIH [2]; Fig 2e, 20 μM 12 and 100 μM 2OG, FIH, 0.237833 min): 27.0539 and 26.3778 and 23.9445
- substrate hydroxylation (% conversion) (FIH [2]; Fig 2e, 20 μM 12 and 100 μM 2OG, FIH, 0.478833 min): 35.9286 and 35.8922 and 32.7293
- substrate hydroxylation (% conversion) (FIH [2]; Fig 2e, 20 μM 12 and 100 μM 2OG, FIH, 0.717 min): 45.1159 and 43.9873 and 41.1347
- substrate hydroxylation (% conversion) (FIH [2]; Fig 2e, 20 μM 12 and 100 μM 2OG, FIH, 0.956333 min): 51.8274
- substrate hydroxylation (% conversion) (FIH [2]; Fig 2e, 20 μM 12 and 100 μM 2OG, FIH, 1.43767 min): 63.7405 and 62.295 and 59.0531
- substrate hydroxylation (% conversion) (FIH [2]; Fig 2e, 20 μM 12 and 100 μM 2OG, FIH, 1.67667 min): 68.2711 and 66.7748 and 63.7338
- substrate hydroxylation (% conversion) (FIH [2]; Fig 2e, 20 μM 12 and 100 μM 2OG, FIH, 1.918 min): 71.9325 and 70.2648 and 67.9993
- substrate hydroxylation (% conversion) (FIH [2]; Fig 2e, 20 μM 12 and 100 μM 2OG, FIH, 2.15883 min): 75.384 and 73.508 and 70.5367
- substrate hydroxylation (% conversion) (FIH [2]; Fig 2e, 20 μM 12 and 100 μM 2OG, FIH, 2.6405 min): 81.0929 and 78.2797 and 76.6153
- substrate hydroxylation (% conversion) (FIH [2]; Fig 2e, 20 μM 12 and 100 μM 2OG, FIH, 2.88117 min): 82.6978 and 80.7392 and 78.6776
- substrate hydroxylation (% conversion) (FIH [2]; Fig 2e, 20 μM 12 and 100 μM 2OG, FIH, 3.12267 min): 85.0838 and 82.5241 and 80.8532
- substrate hydroxylation (% conversion) (FIH [2]; Fig 2e, 20 μM 12 and 100 μM 2OG, FIH, 3.36583 min): 85.9652 and 84.4207 and 82.727
- substrate hydroxylation (% conversion) (FIH [2]; Fig 2e, 20 μM 12 and 100 μM 2OG, FIH, 3.60733 min): 87.7923 and 85.7936 and 83.2563
- substrate hydroxylation (% conversion) (FIH [2]; Fig 2e, 20 μM 12 and 100 μM 2OG, FIH, 3.849 min): 88.932 and 84.1653 and 80.7905
- substrate hydroxylation (% conversion) (FIH [2]; Fig 2d, 20 μM 12, FIH, 0 min): 8.164 and 7.161 and 7.808
- substrate hydroxylation (% conversion) (FIH [2]; Fig 2d, 20 μM 12, FIH, 0.707167 min): 31.5759 and 26.6674 and 29.4313
- substrate hydroxylation (% conversion) (FIH [2]; Fig 2d, 20 μM 12, FIH, 1.41317 min): 48.4989 and 42.8597 and 46.6007
- substrate hydroxylation (% conversion) (FIH [2]; Fig 2d, 20 μM 12, FIH, 2.12133 min): 61.9239 and 55.8625 and 59.591
- substrate hydroxylation (% conversion) (FIH [2]; Fig 2d, 20 μM 12, FIH, 2.822 min): 71.1548 and 65.8729 and 69.0603
- substrate hydroxylation (% conversion) (FIH [2]; Fig 2d, 20 μM 12, FIH, 3.52117 min): 77.6139 and 72.8151 and 76.4316
- substrate hydroxylation (% conversion) (FIH [2]; Fig 2d, 20 μM 12, FIH, 4.22083 min): 82.6095 and 78.8355 and 81.4405
- substrate hydroxylation (% conversion) (FIH [2]; Fig 2d, 20 μM 12, FIH, 4.9205 min): 86.3253 and 83.0223 and 85.6621
- substrate hydroxylation (% conversion) (FIH [2]; Fig 2d, 20 μM 12, FIH, 5.62167 min): 89.1149 and 86.1539 and 88.6579
- substrate hydroxylation (% conversion) (FIH [2]; Fig 2d, 20 μM 12, FIH, 6.3215 min): 91.4092 and 88.7795 and 90.8352
- substrate hydroxylation (% conversion) (FIH [2]; Fig 2d, 20 μM 12, FIH, 7.02117 min): 93.1171 and 89.921 and 92.1057
- substrate hydroxylation (% conversion) (FIH [2]; Fig 2d, 20 μM 12, FIH, 7.724 min): 94.3469 and 91.6232 and 93.2231
- substrate hydroxylation (% conversion) (FIH [2]; Fig 2d, 20 μM 12, FIH, 8.42383 min): 95.3806 and 92.9188 and 94.5877
- substrate hydroxylation (% conversion) (FIH [2]; Fig 2d, 20 μM 12, FIH, 9.1255 min): 96.194 and 94.1363 and 95.5545
- substrate hydroxylation (% conversion) (FIH [2]; Fig 2d, 20 μM 12, FIH, 9.83 min): 97.3851 and 94.9972 and 96.1755
- substrate hydroxylation (% conversion) (FIH [2]; Fig 2d, 20 μM 12, FIH, 10.5315 min): 98.7917 and 94.9441 and 95.9828
- FIH-catalyzed CA1–20 hydroxylation (FIH [2]; Fig 2d, 20 μM 12, after ~5 min): ~ 90%
- hydroxylation of CA1-20 peptide in final reaction mixture (SPE-MS) (FIH [3]; t = 10 min): > 95%
- FIH-catalyzed conversion of cosubstrate to succinate / 2-methylsuccinate (1H NMR) (FIH [3]; within 5 min): ~ 65%
